The structures appear in SMILES notation. Where only a bound is given, the exact number is not on record here.

The target in experiment [1] is T1, full-length RORγt in Jurkat cells (Homo sapiens, UniProt P51449).
T1 construct: transcriptional activity of the full-length RORγt in Jurkat cells; host or cells: Jurkat cells (ATCC TIB-152)
T1 sequence (P51449 1-497 isoform P51449-2): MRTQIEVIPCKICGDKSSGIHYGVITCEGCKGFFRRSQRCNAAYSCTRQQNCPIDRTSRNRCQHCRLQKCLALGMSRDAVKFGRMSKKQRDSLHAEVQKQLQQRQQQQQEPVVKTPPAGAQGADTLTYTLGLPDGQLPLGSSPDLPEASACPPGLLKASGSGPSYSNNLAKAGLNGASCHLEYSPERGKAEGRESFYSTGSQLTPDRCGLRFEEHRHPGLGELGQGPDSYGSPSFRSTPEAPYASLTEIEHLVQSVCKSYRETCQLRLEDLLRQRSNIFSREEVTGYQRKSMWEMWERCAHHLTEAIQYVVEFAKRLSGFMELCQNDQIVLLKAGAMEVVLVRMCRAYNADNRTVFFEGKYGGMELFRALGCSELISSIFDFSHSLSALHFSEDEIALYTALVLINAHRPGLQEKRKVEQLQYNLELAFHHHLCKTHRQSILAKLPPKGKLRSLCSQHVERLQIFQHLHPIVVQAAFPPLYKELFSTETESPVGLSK
In words: RORγt 5×RORE Assay in Jurkat Cells (Assay 2). In kind it is cell-based. The following applies: 5×RORE luciferase reporter, Table 20, read-out: Avg ROR γt/5x IC5. On the procedure:
[formula] RORγt 5×RORE Assay in Jurkat Cells (Assay 2)
Compounds described herein were tested for RORγ inverse agonist activity in a cell-based, transcriptional activity assay. Secreted Nanoluc″ luciferase was used as a reporter for transcriptional activity of the full-length RORγt in Jurkat cells (ATCC, Cat. #TIB-152). A reporter plasmid was constructed by inserting 5 repeats of the ROR Response Element (RORE) […] (SEQ ID NO: 1) into a commercially available promoterless plasmid pNL1.3[secNluc] (Promega, Cat. #N1021) using KpnI and HindIII restriction sites. The expression plasmid for RORγt was purchased (Geneocopoeia, Cat. #EX-T6988-M02). Jurkat cells (30 million cells) were transfected with 11 μg of EX-T6988-MO2 and 26 μg of the reporter plasmid in OptiMEM® media using Lipofectamine LTX and Plus™ reagents (Life Technologies, Cat. #15338-100). After 5-6 hrs of incubation at 37° C./5% CO2, the cells were collected, resuspended in phenol-red free RPMI media containing 10% (v/v) delipidated FBS (Hyclone, Cat. #SH30855.03) and dispensed into 96-well clear bottom tissue culture plates (CoStar, Cat. #3603), at 80,000 cells per well. Tested compounds were added to the cells in the same media (final concentration of DMSO was 0.1% (v/v)), and the plates were incubated at 37° C./5% CO2 for 16-18 hrs. Luciferase activity in the conditioned supernatants was determined with NanoGlo® assay reagents (Promega, Cat. #N1130).
Background: A reporter such as luciferase makes a cellular process visible.

For experiment [2], the target named is T2, recombinant RORγ Ligand Binding Domain (LBD) protein (Homo sapiens, UniProt P51449).
T2 construct: 6×His; GST
T2 sequence (P51449 269-508 limits assumed): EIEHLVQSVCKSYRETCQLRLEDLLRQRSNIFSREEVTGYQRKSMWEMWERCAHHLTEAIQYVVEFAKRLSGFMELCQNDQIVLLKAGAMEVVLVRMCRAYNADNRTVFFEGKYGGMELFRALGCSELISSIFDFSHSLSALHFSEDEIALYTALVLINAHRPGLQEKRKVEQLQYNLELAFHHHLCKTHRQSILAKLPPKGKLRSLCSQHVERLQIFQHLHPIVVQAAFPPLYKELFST
The experiment in a line: Radio-Ligand RORγ Binding Assay (Assay 1). The following applies: radio-ligand competition, 25-hydroxy [26,27-3H]-cholesterol, RORγ LBD; read-out: Avg ROR Bind Ki. The procedure, abridged:
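Cell-free SPA competition between compound and 25-hydroxy[26,27-^3H]-cholesterol for 6×His-GST-tagged RORγ LBD in 50 mM HEPES pH 7.4 with NaCl, MgCl2, glycerol, CHAPS, octylglucoside and DTT. Mix was shaken 20 min, held 10 min at rt, then read after poly-Lys YSi beads. IC50 came from a four-parameter fit, and Ki from radioligand KD.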

`CC[C@@H]1CN(c2ccc(C(F)(F)F)cc2)C(=O)c2cc(C(=O)NCc3ccc(S(=O)(=O)CC)cc3)ccc21` (single isomer, unassigned) [Hy7-12.1]: the IC50 in experiment [1] lay within 100 to 1000 nM. Further, in experiment [2], the Ki – broadly, the dissociation constant of the complex between target and ligand, obtained from inhibition or displacement – was under 100 nM.

Consider `CC[C@H]1CN(c2ccc(C(F)(F)F)cc2)C(=O)c2cc(C(=O)NCc3ccc(S(=O)(=O)CC)cc3)ccc21` (single isomer, unassigned) [Hy7-12.2], for which, in experiment [1], the IC50 fell in the range of 100 to 1000 nM. Besides, the Ki in experiment [2] is under 100 nM.

Take `CC[C@@H]1CN(c2ncc(C(F)(F)F)cc2C)Cc2cc(C(=O)NCc3ccc(S(=O)(=O)CC)cc3)ccc21` (single isomer, unassigned) [Hy7-13.1]: in experiment [1], the IC50 was under 100 nM. Also, the Ki in experiment [2] was under 100 nM.

Take `CC[C@H]1CN(c2ncc(C(F)(F)F)cc2C)Cc2cc(C(=O)NCc3ccc(S(=O)(=O)CC)cc3)ccc21` (single isomer, unassigned) [Hy7-13.2]: the IC50 in experiment [1] was in the range of 100 to 1000 nM. Further, the Ki in experiment [2] is under 100 nM.

On to `CCS(=O)(=O)c1ccc(CNC(=O)c2ccc3c(c2)CN(c2nccc(C(F)(F)F)n2)C[C@H]3C(C)C)cc1` (single isomer, unassigned) [Hy7-14.1], for which the IC50 in experiment [1] was over 1000 nM. In experiment [2], the Ki was under 100 nM.

For `CCS(=O)(=O)c1ccc(CNC(=O)c2ccc3c(c2)CN(c2nccc(C(F)(F)F)n2)C[C@@H]3C(C)C)cc1` (single isomer, unassigned) [Hy7-14.2], the IC50 in experiment [1] is over 1000 nM. The Ki in experiment [2] was under 100 nM.

`CCS(=O)(=O)c1ccc(CNC(=O)c2ccc3c(c2)CN(c2ncc(C(F)(F)F)cn2)C[C@H]3C(C)C)cc1` (single isomer, unassigned) [Hy7-15.1]: in experiment [1], the IC50 lay within 100 to 1000 nM. The Ki in experiment [2] was under 100 nM.

As to `CCOC(=O)c1cnc(N2Cc3cc(C(=O)NCc4ccc(S(=O)(=O)CC)cc4)ccc3[C@H](C(C)C)C2)nc1` (single isomer, unassigned) [Hy7-16.1], in experiment [1], the IC50 was under 100 nM. Further, the Ki in experiment [2] was under 100 nM.

Take `CCC1CN(c2ncc(C(F)(F)F)cn2)Cc2cc(C(=O)N[C@@H](CO)c3ccc(S(=O)(=O)CC)cc3)ccc21` (single isomer, unassigned) [Hy7-17.1]: the IC50 in experiment [1] was under 100 nM. The inhibitory constant (Ki) in experiment [2] was under 100 nM.

For the molecule `CCC1CN(c2ncc(C(F)(F)F)cn2)Cc2cc(C(=O)N[C@@H](CO)c3ccc(S(=O)(=O)CC)cc3)ccc21` (single isomer, unassigned) [Hy7-17.2], in experiment [1], the IC50 was over 1000 nM. In addition, the Ki in experiment [2] is under 100 nM.

Consider `CC[C@@H]1CN(c2ncc(C(F)(F)F)cn2)Cc2cc(C(=O)N[C@@H](CO)c3ccc(S(=O)(=O)CC)cn3)ccc21` (single isomer, unassigned) [Hy7-18.1], for which the IC50 in experiment [1] is under 100 nM. Further, in experiment [2], the Ki was under 100 nM.

Take `CC[C@@H]1CN(c2ncc(C(F)(F)F)cn2)Cc2cc(C(=O)N[C@H](CO)c3ccc(S(=O)(=O)CC)cn3)ccc21` (single isomer, unassigned) [Hy7-18.2]: the IC50 in experiment [1] is over 1000 nM. In addition, in experiment [2], the Ki was under 100 nM.

On to `CC[C@@H]1CN(c2ncc(-c3cccc(OC)n3)cn2)Cc2cc(C(=O)NCc3ccc(S(=O)(=O)CC)cc3)ccc21` (single isomer, unassigned) [Hy7-20.1], for which the IC50 in experiment [1] was under 100 nM. Besides, in experiment [2], the Ki is under 100 nM.

`CCS(=O)(=O)c1ccc(CNC(=O)c2ccc3c(c2)CN(c2ncc(-c4ccc(=O)[nH]c4)cn2)C[C@H]3C(C)C)cc1` (single isomer, unassigned) [Hy7-21.1]: the IC50 in experiment [1] is 100 to 1000 nM. For the same molecule, the Ki in experiment [2] was under 100 nM.

Take `CC[C@@H]1CN(c2ncc(C(F)(F)F)cc2C)Cc2cc(C(=O)N[C@@H](CO)c3ccc(S(=O)(=O)CC)cc3)ccc21` (single isomer, unassigned) [Hy7-22.1]: the IC50 in experiment [1] is under 100 nM. For the same molecule, the Ki in experiment [2] was under 100 nM.

As to `CC[C@H]1CN(c2ncc(C(F)(F)F)cc2C)Cc2cc(C(=O)N[C@@H](CO)c3ccc(S(=O)(=O)CC)cc3)ccc21` (single isomer, unassigned) [Hy7-22.2], the IC50 in experiment [1] lay in the range of 100 to 1000 nM. In experiment [2], the Ki was under 100 nM.

For `CCS(=O)(=O)c1ccc(CNC(=O)c2ccc3c(c2)CN(c2ncc(-c4ccnc(OC)c4)cn2)C[C@H]3C(C)C)cc1` (single isomer, unassigned) [Hy7-23.1], the IC50 in experiment [1] is under 100 nM. In addition, in experiment [2], the Ki is under 100 nM.

On to `CCS(=O)(=O)c1ccc(CNC(=O)c2ccc3c(c2)CN(c2ncc(-c4ccc(=O)n(C)c4)cn2)C[C@H]3C(C)C)cc1` (single isomer, unassigned) [Hy7-24.1], for which, in experiment [1], the IC50 was under 100 nM. Further, the Ki in experiment [2] was under 100 nM.

Regarding `CCS(=O)(=O)c1ccc(CNC(=O)c2ccc3c(c2)CN(c2ncc(-c4ccn(C)c(=O)c4)cn2)C[C@H]3C(C)C)cc1` (single isomer, unassigned) [Hy7-25.1], the IC50 in experiment [1] was 100 to 1000 nM. The Ki in experiment [2] was under 100 nM.

With `CCOC(=O)c1cnc(N2Cc3cc(C(=O)NCc4ccc(S(=O)(=O)CC)cc4)ccc3[C@H](C(C)C)C2)nc1C(F)(F)F` (single isomer, unassigned) [Hy7-26.1], the IC50 in experiment [1] was under 100 nM. For the same molecule, in experiment [2], the Ki was under 100 nM.

As for `CCOC(=O)c1cnc(N2Cc3cc(C(=O)NCc4ccc(S(=O)(=O)CC)cc4)ccc3[C@@H](C(C)C)C2)nc1C(F)(F)F` (single isomer, unassigned) [Hy7-26.2], the IC50 in experiment [1] was 100 to 1000 nM. The inhibition constant Ki in experiment [2] was under 100 nM.

With `CCS(=O)(=O)c1ccc(CNC(=O)c2ccc3c(c2)CN(Cc2ccc(F)cc2)C[C@H]3C(C)C)cc1` (single isomer, unassigned) [Hy7-27.1], the IC50 in experiment [1] was over 1000 nM. In addition, the Ki in experiment [2] was under 100 nM.

For `CCS(=O)(=O)c1ccc(CNC(=O)c2ccc3c(c2)CN(Cc2ccc(F)cc2)C[C@@H]3C(C)C)cc1` (single isomer, unassigned) [Hy7-27.2], in experiment [1], the IC50 is under 100 nM. The Ki in experiment [2] was under 100 nM.

Take `CCS(=O)(=O)c1ccc(CNC(=O)c2ccc3c(c2)CN(Cc2ccc(C#N)cc2)C[C@H]3C(C)C)cc1` (single isomer, unassigned) [Hy7-28.1]: the IC50 in experiment [1] is 100 to 1000 nM. Also, the Ki in experiment [2] is under 100 nM.

Take `CCS(=O)(=O)c1ccc(CNC(=O)c2ccc3c(c2)CN(Cc2ccc(C#N)cc2)C[C@@H]3C(C)C)cc1` (single isomer, unassigned) [Hy7-28.2]: the IC50 in experiment [1] was under 100 nM. In addition, the Ki in experiment [2] was under 100 nM.

For the molecule `CCS(=O)(=O)c1ccc(CNC(=O)c2ccc3c(c2)CN(Cc2ccc(Cl)cc2)C[C@H]3C(C)C)cc1` (single isomer, unassigned) [Hy7-29.1], the IC50 in experiment [1] is over 1000 nM. Besides, the Ki in experiment [2] is under 100 nM.

As for `CCS(=O)(=O)c1ccc(CNC(=O)c2ccc3c(c2)CN(Cc2ccc(Cl)cc2)C[C@@H]3C(C)C)cc1` (single isomer, unassigned) [Hy7-29.2], the IC50 in experiment [1] was in the range of 100 to 1000 nM. The Ki in experiment [2] is under 100 nM.

In the case of `CC[C@@H]1CN(c2ncc(-c3ncco3)cn2)Cc2cc(C(=O)NCc3ccc(S(=O)(=O)CC)cc3)ccc21` (single isomer, unassigned) [Hy7-31.1], the IC50 in experiment [1] is under 100 nM. Moreover, in experiment [2], the inhibitory constant (Ki) is under 100 nM.

Consider `CC[C@H]1CN(c2ncc(-c3ncco3)cn2)Cc2cc(C(=O)NCc3ccc(S(=O)(=O)CC)cc3)ccc21` (single isomer, unassigned) [Hy7-31.2], for which the IC50 in experiment [1] is over 1000 nM. Moreover, the Ki in experiment [2] was under 100 nM.

Regarding `CC[C@@H]1CN(C2CCC(F)(F)CC2)Cc2cc(C(=O)N[C@@H](CO)c3ccc(S(=O)(=O)CC)cc3)ccc21` (single isomer, unassigned) [Hy7-32.1], in experiment [1], the IC50 was over 1000 nM. For the same molecule, the Ki in experiment [2] is under 100 nM.

The values above are taken from US11008340B2, “Modulators of ROR-gamma” (Vitae Pharmaceuticals, LLC, priority 2015, dated 2021).
